This test relates to HT29 human colon tumour cells. In words: Cell proliferation assay. In kind it is cell-based. To be noted: HT-29, 72 hours incubation. The method, then: Cell Proliferation Assays
Cells were seeded into multi-well plates at 20 000-40 000 cells/ml in growth medium containing 5% FCS and incubated overnight at 37° C. The compounds were prepared in fresh medium at an appropriate concentration and added to the wells containing the cells. These were then incubated for a further 72 hours. Cells were then either removed from the wells by incubating with trypsin/EDTA and counted using a Coulter counter, or treated with XTT/PMS in PBSA and optical densities read at 450 nm. […] For example, Compound No 3 gave an IC50 of 1.0 μM in HT29 human colon tumour cells.

As for `COc1cc2ncc(C#N)c(Nc3ccc(Oc4ccccc4OCC(=O)NCC(=O)N4CCN(C)CC4)cc3)c2cc1OC` [Compound 3], the IC50 was 1 µM.

What is called IC50 is the concentration that gives 50% inhibition. A higher IC50 goes with a need for much substance.

Values taken from patent US7504416B2, “4-substituted quinolines as antitumor agents” (AstraZeneca AB, priority 2000, dated 2009).
